Experimental data as given in the supplement of paper PMC10331698.
± gives the standard deviation of the averaged measurements.

What was measured:
Assay in all cases: level (log10 ratio to DMSO vehicle control); higher = higher biomarker level / cell amount than vehicle control
Details in all cases: in DMSO
[1] = compound: O=S(=O)(O)C(F)(F)C(F)(F)C(F)(F)C(F)(F)C(F)(F)C(F)(F)C(F)(F)C(F)(F)F [Perfluorooctanesulfonic acid]
Procedure: (§1)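 BioMAP Diversity Plus panel of 12 human primary cell co-culture systems (3C, 4H, LPS, SAg, BT, BF4T, BE3C, CASM3C, HDF3CGF, KF3CT, MyoF, Mphg). Compounds were added 1 h before stimulation and left for 24 h (MyoF 48 h; BT 72 h for soluble read-outs or 6 d for IgG). Biomarkers were read by ELISA, cytotoxicity by SRB, PBMC viability and proliferation by Alamar Blue. Each well value was divided by the mean of 8 DMSO control wells on the same plate and log10 transformed; duplicate blinded samples were tested at 4 concentrations.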

[2] = compound: FC(F)(F)C(F)(F)C(F)(F)C(F)(F)C(F)(F)C(F)(F)C(F)(F)CCI [1-Iodo-1H,1H,2H,2H-perfluorononane]
Procedure: as §1

Hexafluoroglutaric acid = compound: O=C(O)C(F)(F)C(F)(F)C(F)(F)C(=O)O [Hexafluoroglutaric acid]
Procedure: as §1

Perfluorooctanamide = compound: NC(=O)C(F)(F)C(F)(F)C(F)(F)C(F)(F)C(F)(F)C(F)(F)C(F)(F)F [Perfluorooctanamide]
Procedure: as §1

1-(Perfluorohexyl)octane = compound: CCCCCCCCC(F)(F)C(F)(F)C(F)(F)C(F)(F)C(F)(F)C(F)(F)F [1-(Perfluorohexyl)octane]
Procedure: as §1

Perfluorooctanamidine = compound: N=C(N)C(F)(F)C(F)(F)C(F)(F)C(F)(F)C(F)(F)C(F)(F)C(F)(F)F [Perfluorooctanamidine]
Procedure: as §1

[3] = compound: CC(C)(C)C(=O)CC(=O)C(F)(F)C(F)(F)C(F)(F)F [(Heptafluorobutanoyl)pivaloylmethane]
Procedure: as §1

Row | Test System | level (log10) ([1]; 6700 nM) | level (log10) ([1]; 20000 nM) | level (log10) ([1]; 60000 nM) | level (log10) ([2]; 6700 nM) | level (log10) ([2]; 20000 nM) | level (log10) (Hexafluoroglutaric acid; 6700 nM) | level (log10) (Hexafluoroglutaric acid; 20000 nM) | level (log10) (Hexafluoroglutaric acid; 60000 nM) | level (log10) (Perfluorooctanamide; 6700 nM) | level (log10) (Perfluorooctanamide; 20000 nM) | level (log10) (Perfluorooctanamide; 60000 nM) | level (log10) (1-(Perfluorohexyl)octane; 6700 nM) | level (log10) (1-(Perfluorohexyl)octane; 20000 nM) | level (log10) (Perfluorooctanamidine; 6700 nM) | level (log10) (Perfluorooctanamidine; 20000 nM) | level (log10) (Perfluorooctanamidine; 60000 nM) | level (log10) ([3]; 6700 nM) | level (log10) ([3]; 20000 nM) | level (log10) ([3]; 60000 nM)
1 | KF3CT:CCL2/MCP-1 | -0.044 ± 0.017 | -0.0205 ± 0.0078 | 0.0005 ± 0.00071 | 0.01 ± 0.03 | 0.0795 ± 0.07 | -0.0255 ± 0.04 | -0.0325 ± 0.067 | -0.0245 ± 0.0021 | -0.011 ± 0.017 | -0.034 ± 0.031 | -0.091 ± 0.0028 | 0.0005 ± 0.023 | 0.036 ± 0.033 | -0.0075 ± 0.0064 | 0.029 ± 0.0099 | 0.092 | 0.0025 ± 0.005 | 0.035 ± 0.0085 | 0.0645 ± 0.013
2 | KF3CT:CD54/ICAM-1 | -0.0085 ± 0.0035 | 0.003 ± 0.02 | 0.0115 ± 0.011 | -0.0045 ± 0.0092 | -0.0175 ± 0.025 | -0.0045 ± 0.00071 | -0.014 ± 0.0057 | -0.0015 ± 0.044 | 0.0015 ± 0.0078 | 0 ± 0.014 | 0.001 | 0.0045 ± 0.033 | -0.0065 ± 0.0035 | 0.0055 ± 0.033 | 0.0175 ± 0.022 | 0.064 | -0.0095 ± 0.011 | -0.0265 ± 0.018 | -0.021 ± 0.0042
3 | KF3CT:CXCL8/IL-8 | -0.005 ± 0.0085 | -0.0135 ± 0.035 | -0.012 ± 0.035 | 0.013 ± 0.0071 | 0.0605 ± 0.0092 | -0.0115 ± 0.025 | -0.006 ± 0.0057 | -0.0135 ± 0.0021 | -0.005 ± 0.0014 | -0.027 ± 0.018 | -0.062 ± 0.0057 | 0.009 ± 0.0085 | 0.021 ± 0.0057 | 0.0135 ± 0.021 | 0.0305 ± 0.018 | 0.043 | -0.015 ± 0.011 | -0.0165 ± 0.0078 | 0.016 ± 0.0014
4 | KF3CT:CXCL9/MIG | -0.007 ± 0.0042 | 0.0025 ± 0.0035 | 0.0075 ± 0.012 | 0.0045 ± 0.00071 | -0.01 ± 0.025 | -0.007 ± 0.0014 | -0.0075 ± 0.0064 | -0.0065 ± 0.0021 | 0.0035 ± 0.039 | 0.0105 ± 0.016 | 0.018 ± 0.0042 | 0.0085 ± 0.013 | 0.001 ± 0.0057 | -0.0015 ± 0.011 | -0.0005 ± 0.0092 | 0.015 | 0.0025 ± 0.0035 | -0.002 ± 0.0042 | 0.0055 ± 0.0021
5 | KF3CT:CXCL10/IP-10 | -0.012 ± 0.02 | -0.0065 ± 0.03 | -0.015 ± 0.013 | -0.0065 ± 0.005 | -0.0235 ± 0.0092 | -0.001 | -0.01 ± 0.0014 | 0.005 ± 0.0014 | 0.0285 ± 0.036 | 0.0365 ± 0.037 | 0.0365 ± 0.016 | -0.0055 ± 0.018 | -0.011 ± 0.0099 | 0.012 ± 0.042 | 0.0025 ± 0.04 | 0.04 | 0.004 ± 0.0099 | -0.006 ± 0.0028 | 0.007 ± 0.0014
6 | KF3CT:IL-1alpha | 0.0105 ± 0.0064 | -0.0165 ± 0.00071 | -0.016 ± 0.0028 | -0.01 ± 0.0071 | 0.019 ± 0.047 | -0.021 ± 0.014 | 0.012 ± 0.013 | -0.0395 ± 0.012 | -0.0055 ± 0.011 | 0.0125 ± 0.0064 | 0.039 ± 0.03 | -0.009 ± 0.04 | 0.0175 ± 0.0092 | -0.005 ± 0.04 | 0.0115 ± 0.011 | 0.03 | 0.02 ± 0.021 | 0.015 ± 0.013 | 0.02 ± 0.023
7 | KF3CT:MMP-9 | -0.0195 ± 0.013 | -0.013 | -0.0705 ± 0.015 | -0.006 ± 0.0042 | 0.0165 ± 0.013 | -0.001 ± 0.023 | 0.015 ± 0.021 | 0.005 ± 0.0099 | -0.011 ± 0.017 | -0.0265 ± 0.0092 | -0.0905 ± 0.0021 | -0.006 ± 0.024 | 0.0075 ± 0.029 | -0.006 ± 0.0028 | -0.0275 ± 0.023 | -0.032 | -0.018 ± 0.0099 | -0.0175 ± 0.023 | -0.014 ± 0.041
8 | KF3CT:PAI-I | -0.0255 ± 0.013 | -0.058 ± 0.02 | -0.135 ± 0.052 | 0.0115 ± 0.022 | 0.017 ± 0.021 | -0.004 ± 0.0042 | -0.0005 ± 0.005 | 0.0045 ± 0.0092 | -0.004 ± 0.011 | -0.0085 ± 0.011 | 0.0005 ± 0.0064 | 0.0165 ± 0.0078 | 0.026 ± 0.011 | -0.001 ± 0.033 | -0.017 ± 0.044 | -0.008 | -0.0065 ± 0.019 | -0.0025 ± 0.016 | 0.004 ± 0.02
9 | KF3CT:SRB | -0.0195 ± 0.0021 | -0.012 ± 0.0042 | -0.012 ± 0.0099 | 0.0005 ± 0.005 | 0.005 ± 0.013 | -0.0055 ± 0.0021 | -0.011 ± 0.0057 | 0.003 ± 0.018 | -0.0065 ± 0.005 | -0.0075 ± 0.0035 | 0 ± 0.0028 | -0.0025 ± 0.023 | -0.0115 ± 0.015 | -0.001 ± 0.0014 | -0.004 ± 0.0014 | 0.027 | -0.0055 ± 0.0021 | -0.003 ± 0.0071 | -0.0065 ± 0.005
10 | KF3CT:TIMP-2 | -0.01 ± 0.0014 | -0.0085 ± 0.016 | 0.0225 ± 0.025 | 0.0145 ± 0.03 | -0.0035 ± 0.0064 | -0.026 ± 0.014 | -0.028 ± 0.0042 | -0.013 ± 0.011 | -0.045 ± 0.0085 | -0.0245 ± 0.04 | -0.033 ± 0.011 | 0.004 ± 0.02 | -0.016 ± 0.011 | 0.01 ± 0.0014 | 0 ± 0.02 | 0.035 | 0.001 ± 0.021 | 0.002 ± 0.014 | -0.015 ± 0.0014
11 | KF3CT:uPA | -0.001 ± 0.0057 | -0.012 ± 0.018 | -0.021 ± 0.0057 | 0.0025 ± 0.018 | 0.006 ± 0.016 | -0.019 ± 0.024 | -0.0055 ± 0.0035 | -0.011 ± 0.011 | -0.012 ± 0.037 | 0.0035 ± 0.015 | -0.0155 ± 0.012 | 0.01 ± 0.024 | -0.0055 ± 0.029 | 0.0015 ± 0.0021 | 0.0165 ± 0.0035 | 0.01 | 0.0025 ± 0.016 | -0.0055 ± 0.012 | -0.003 ± 0.027
12 | MyoF:CD106/VCAM-1 | 0.0055 ± 0.0021 | 0.0085 ± 0.016 | 0.0165 ± 0.023 | -0.007 ± 0.023 | -0.003 ± 0.0014 | -0.0145 ± 0.021 | -0.023 ± 0.0099 | -0.006 ± 0.0014 | -0.0115 ± 0.015 | 0.014 ± 0.0014 | -0.0185 ± 0.011 | -0.0085 ± 0.005 | -0.027 ± 0.033 | 0.0115 ± 0.026 | -0.002 ± 0.018 | 0.011 | -0.011 ± 0.035 | -0.0065 ± 0.028 | 0.005 ± 0.0085
13 | MyoF:CXCL8/IL-8 | -0.057 ± 0.0028 | -0.0755 ± 0.013 | -0.025 ± 0.017 | 0.0195 ± 0.0064 | 0.0335 ± 0.025 | -0.0085 ± 0.0021 | -0.0225 ± 0.013 | -0.0015 ± 0.021 | -0.01 ± 0.0071 | 0.0135 ± 0.023 | 0.03 ± 0.014 | 0.0015 ± 0.029 | 0.028 ± 0.011 | -0.003 ± 0.041 | 0.03 ± 0.0099 | 0.043 | 0.022 ± 0.05 | 0.032 ± 0.068 | 0.03 ± 0.055
14 | MyoF:Collagen I | -0.012 ± 0.018 | -0.0045 ± 0.0092 | 0.015 ± 0.021 | 0.007 ± 0.0042 | -0.015 ± 0.028 | -0.003 ± 0.013 | -0.0005 ± 0.016 | 0.011 ± 0.0014 | -0.007 ± 0.0099 | -0.0265 ± 0.015 | -0.0435 ± 0.0035 | 0.0045 ± 0.016 | -0.0205 ± 0.0035 | -0.0005 ± 0.013 | 0.007 ± 0.0085 | 0.047 | -0.0165 ± 0.011 | -0.007 ± 0.0099 | 0.0065 ± 0.013
15 | MyoF:Collagen III | -0.0265 ± 0.026 | -0.025 ± 0.0071 | -0.0385 ± 0.012 | 0.0145 ± 0.0021 | -0.0055 ± 0.03 | 0.006 ± 0.0042 | 0.0035 ± 0.005 | 0.0055 ± 0.00071 | -0.0005 ± 0.029 | 0.0045 ± 0.033 | 0.002 ± 0.013 | 0.019 ± 0.03 | -0.016 ± 0.0014 | -0.0045 ± 0.015 | 0.003 ± 0.017 | 0.006 | -0.0115 ± 0.0021 | -0.002 ± 0.013 | 0.026 ± 0.0028
